US20240115654A1, “INTRAVENOUS ADMINISTRATION OF ENGINEERED ANTIMICROBIAL AMPHIPHILIC PEPTIDES” (priority 2021, published 2024)
In brackets after ≈: the same amount, converted by molar mass. Read-outs that look alike come from different tables or passages of the source. Peptide text beside a SMILES is read from it.

Assays:
[1] = mice
Description: Male CD-1 mice will be received from an approved vendor and allowed to acclimate for a minimum of two days. Fasting will be not required.
All dosing syringes will be weighed prior to and following dosing. IV doses will be administered as a slow bolus (over ˜30 seconds) via direct venipuncture of a tail vein. All animals will be observed at dosing and each scheduled collection. All abnormalities will be recorded.
Terminal blood samples will be collected via cardiac puncture following inhalation anesthesia.
Sample Processing and Storage: Blood samples will be collected into K2EDTA tubes and stored on wet ice. Whole blood will be processed to plasma by centrifugation (3500 rpm at 5° C.) within 30 minutes of collection. Plasma samples will be split into 2 equal aliquots and each transferred into 96 well plates (matrix tubes) and stored at −80° C. until analysis. Administered doses will be determined gravimetrically.
Prior to extraction, a known concentration of a mass-adjusted internal standard (IS) will be added to assess recovery and allow for quantitation. Purified samples will be further subjected to high-performance liquid chromatography (HPLC) using C18 300 or 130 angstrom columns prior to MS/MS analysis. Multiple charge states will be observed by MS, so MS/MS will be employed to enable multiple reaction monitoring (MRM) analyses to determine the most MRM transitions with the highest signal-to-noise gain. Compound plasma concentrations will be determined by comparing to and compensating with co-purified IS peak intensity and validated calibrated standard curves.
Pharmacokinetic parameters will be calculated using non-compartmental methods as implemented in the Phoenix® WinNonlin® ver. 6.3 comprehensive TK/PK analysis software program (Pharsight Corporation; Mountain View, CA) using an IV infusion model. Pharmacokinetic analysis will be conducted using a 30-minute intravenous infusion time. Therefore, 30 minutes will be added to each sample time point postdose to obtain nominal time for TK analysis. Nominal times and dosage levels will be used for all calculations. Values below the lower limit of quantitation (BLQ) will be assigned a value of zero for the pharmacokinetic calculations. Microsoft® Excel® 2013 will be used for receipt of bioanalytical data, minor formatting, including setting BLQ values to “0”, transfer into WinNonlin® for PK analysis, and calculation of the mean when an approximated value will be excluded. All plasma concentration data from all animals will be included in the analysis. Graphical presentations will be performed using Microsoft® Excel® 2013.

[2] = tested on: Staphylococcus aureus isolates (n = 104); assay: microbe, parasite or virus in culture
Protocol: (§1) Comparator antibiotics were supplied by Micromyx, and stock solutions were prepared on the first day of testing using solvents recommended by CLSI (1). Stock solutions of all compounds were made at 40× the final testing concentration and stored at −80° C. prior to testing. Information regarding compound source, catalog and lot number, testing concentrations and drug diluent for the comparators and test agent are detailed below in Table 3.
(§2) The test organisms evaluated in this study consisted of clinical isolates from the Micromyx Repository and reference isolates from the American Type Culture Collection (ATCC; Manassas, VA). The clinical isolates were obtained from USA hospitals. Upon initial receipt at Micromyx, the organisms were sub-cultured onto an appropriate agar medium. Following incubation, colonies were harvested from these plates and cell suspensions prepared and frozen at −80° C. with a cryoprotectant. Prior to testing, the isolates were streaked from frozen vials onto Trypticase Soy Agar with 5% sheep blood (Becton Dickenson [BD]; Sparks, MD; Lot Nos. 7173618, 7166759, 7208688, 72144895, 7228505 and Remel Lenexa, KS Lot No. 212574). Plates were incubated at 35° C. overnight.
Mueller Hinton II broth (MHB II; BD; Lot Nos. 6258541 and 7143896) was used for MIC testing of aerobic organisms.
MIC values were determined using a broth microdilution procedure described by CLSI (1, 3). Automated liquid handlers (Multidrop 384, Labsystems, Helsinki, Finland; Biomek 2000 and Biomek FX, Beckman Coulter, Fullerton CA) were used to conduct serial dilutions and liquid transfers.
To prepare the drug mother plates, which would provide the serial drug dilutions for the replicate daughter plates, the wells of columns 2-12 of standard 96-well microdilution plates (Costar 3795) were filled with 150 μl of the designated diluent for each row of drug. The test articles and comparator compounds (300 μl at 40× the highest concentration to be tested) were dispensed into the appropriate wells in column 1. The Biomek 2000 was then used to make 2-fold serial dilutions in the mother plates from column 1 through column 11. The wells of Column 12 contained no drug and served as the organism growth control wells for the assay.
(§3) The daughter plates were loaded with 185 μL per well of MHB II using the Multidrop 384. The daughter plates were completed on the Biomek FX instrument which transferred 5 μL of drug solution from each well of a mother plate to the corresponding well of each daughter plate in a single step. A standardized inoculum of each test organism was prepared per CLSI methods (1). The inoculum for each organism was dispensed into sterile reservoirs divided by length (Beckman Coulter), and the Biomek 2000 was used to inoculate the plates. Daughter plates were placed on the Biomek 2000 work surface in reverse orientation so that inoculation took place from low to high drug concentration.
(§4) Plates were stacked 3-4 high, covered with a lid on the top plate, placed in plastic bags, and incubated at 35° C. for 16 to 20 hrs. Following incubation, the microplates were removed from the incubator and viewed from the bottom using a plate viewer. […] The MIC was read and recorded as the lowest concentration of drug that inhibited visible growth of the organism.
(§5) Clinical breakpoints to determine percent resistance within a given organism group were obtained from CLSI (3), with the exception of colistin for K. pneumoniae, Enterobacter spp., and E. coli, which are only available from EUCAST.

[3] = tested on: Enterococcus faecium isolates (n = 104); assay: microbe, parasite or virus in culture
Protocol: as §1
as §2, with “Prior to testing, the isolates were streaked from frozen vials onto Trypticase Soy Agar with 5% sheep blood (Becton Dickenson [BD]; Sparks, MD; Lot Nos. 7173618, 7166759, 7208688, 72144895, 7228505 and Remel Lenexa, KS Lot No. 212574).” left out
MIC values were determined using a broth microdilution procedure described by CLSI (1, 3).
The test articles and comparator compounds (300 μl at 40× the highest concentration to be tested) were dispensed into the appropriate wells in column 1. The Biomek 2000 was then used to make 2-fold serial dilutions in the mother plates from column 1 through column 11. The wells of Column 12 contained no drug and served as the organism growth control wells for the assay.
as §3, with “The” for “The daughter plates were loaded with 185 μL per well of MHB II using the Multidrop 384. The”
as §4, §5

[4] = Staphylococcus aureus (n = 104), all methicillin-resistant

## CC(C)[C@H](NC(=O)[C@H](Cc1c[nH]c2ccccc12)NC(=O)[C@H](CCCNC(=N)N)NC(=O)[C@H](CCCNC(=N)N)NC(=O)[C@@H](NC(=O)[C@@H](NC(=O)[C@H](CCCNC(=N)N)NC(=O)[C@@H](NC(=O)[C@@H](NC(=O)[C@H](CCCNC(=N)N)NC(=O)[C@H](CCCNC(=N)N)NC(=O)[C@H](Cc1c[nH]c2ccccc12)NC(=O)[C@@H](NC(=O)[C@H](CCCNC(=N)N)NC(=O)[C@H](CCCNC(=N)N)NC(=O)[C@@H](NC(=O)[C@H](CCCNC(=N)N)NC(=O)[C@H](CCCNC(=N)N)NC(=O)[C@@H](NC(=O)[C@H](Cc1c[nH]c2ccccc12)NC(=O)[C@H](CCCNC(=N)N)NC(=O)[C@@H](N)CCCNC(=N)N)C(C)C)C(C)C)C(C)C)C(C)C)C(C)C)C(C)C)C(C)C)C(=O)N[C@@H](CCCNC(=N)N)C(=O)N[C@@H](CCCNC(=N)N)C(N)=O [SEQ ID NO: 1] (H-RRWVRRVRRVWRRVVRVVRRWVRR-NH2)
[1]; 3 mg/kg IV
  AUCinf: <3500 ng·h/mL
  CL: ~5 mL/min/kg
  Extrapolated: ~0.5%
  MRT last: ~0.5 h
  T1/2: ~8 h
  Vss: ~0.2 L/kg
  Vz: ~3 L/kg
[1]; 15 mg/kg IV
  AUCinf_D: 3589 kg·ng·h/mL/ng
  Extrapolated: 0.49%
[2]; S. aureus MRSA, n=104
  MIC50: 4 µg/mL (≈ 1.18 µM)
  MIC90: 8 µg/mL (≈ 2.35 µM)
  MIC range: 1 to 16 µg/mL
[2]; [4]
  MIC50: 4 µg/mL (≈ 1.18 µM)
  MIC90: 8 µg/mL (≈ 2.35 µM)
  Mode (MIC): 4 µg/mL
[3]; Enterococcus faecium (n = 104)
  MIC50: 1 µg/mL (≈ 0.294 µM)
  MIC90: 2 µg/mL (≈ 0.588 µM)
  Mode (MIC): 1 µg/mL
[3]; isolates (n = 104)
  MIC50: 0.5 µg/mL (≈ 0.147 µM)
  MIC90: 1 µg/mL (≈ 0.294 µM)
  MIC range: 0.25 to 2 µg/mL
